Test results from patent publication US10561646B2, “EGFR inhibitor and pharmaceutically acceptable salt and polymorph thereof, and use thereof” (SHANGHAI HAIYAN PHARMACEUTICAL TECHNOLOGY CO., LTD., priority 2015, dated 2020).
Entries after “also recorded” stand apart in the source; their conditions may differ. Like-named read-outs stand apart in the source and are kept apart here.

Assays:
[1] = Hygroscopicity / DVS test; assay type: physicochemical; details: for moisture absorbed: humidity increased to 80% RH at 25° C.
Description: Dynamic Vapor Sorption (DVS) curve: collected on DVS Intrinsic SMS (Surface Measurement Systems). The relative humidity at 25° C. is corrected with the deliquescent points of LiCl, Mg (NO3)2 and KCl.
The rate of weight loss increases when the humidity is reduced to 20% RH at 25° C.
The DVS test was performed on crystal form II sample at a constant temperature of 25° C.
In order to assess the stability of anhydrous crystal form I and hydrate crystal form II under different humidity conditions, DVS assay was performed on samples of anhydrous crystal form I and hydrate crystal form II at constant 25° C.
When the humidity reaches 20% RH, a turning point appears in the isothermal map of DVS, which is caused by the transition from anhydrous crystal form I to hydrate form II according to the XRPD comparison of the samples before and after the DVS assay shown in FIG. 32. The actual moisture absorbed is less than the moisture content of crystal form II sample due to the slow solid phase transition rate.

[2] = Suspension competition test between crystal forms; assay type: physicochemical; details: for stability relationship crystal form II / IV: acetone/H2O (aw 0.6), about 5 minutes
Description: Firstly, the suspension of maleate crystal form C-1 in acetone was prepared at two temperature respectively, and filtered after balancing for about one hour.
In order to further confirm the stability relationship between anhydrous crystal form I and hydrate crystal form II under different water activity conditions at room temperature, the mixture of crystal form I and crystal form II was suspended and stirred in acetone/H2O solvent system with different water activities (aw—0.2/0.4/0.6/0.8).
In order to study the stability relationship between different hydrate crystal form II and IV at room temperature to 50° C., a suspension competition test was set up in aqueous system at room temperature and 50° C. respectively. Firstly, the free base suspension in acetone/H2O (aw—0.6) was prepared at room temperature and 50° C. respectively. After balancing at the corresponding temperature for about 1 hour, the suspension was filtered to obtain the near saturated solution at the corresponding temperature. An equal quantity of crystal form II and IV samples (about 6 mg each) was added to 0.8 ml of saturated solution to form a suspension which was magnetically stirred (−800 rpm) at room temperature and 50° C. for about 5 minutes, and sampled for XRPD test.

[3] = In vivo test of rats, pharmacokinetics after oral gavage; design: species or system SD rats; details: rat, oral gavage 5 mg/kg; for Area under the curve AUC / Half-life T1/2: plasma
[4] = Solid phase stability experiment (XRPD, HPLC, TGA after one week); assay type: physicochemical; details: for Purity (%): HPLC; for Weight loss (%): TGA; for crystal transition: XRPD
Description: An appropriate amount of samples were weighed and stored at 25° C./60% RH and 40° C./75% RH (unsealed), respectively. Another set of samples were sealed and kept as a control at 5° C. at the same time. All samples were characterized by XRPD, HPLC and TGA one week later, and the crystal form, purity and weight loss were tested.

[5] = room temperature, crude solubility
NIH3T3 cells = experiment: Cytotoxicity against NIH3T3 cells, MTT assay; assay type: cell-based; details: Mus musculus, 72 h incubation
A431 cells [6] = experiment: Cytostatic activity by MTT method, A431; assay type: cell-based
H1975 cells [7] = experiment: Cytostatic activity by MTT method, H1975; assay type: cell-based
H1975 cells [8] = experiment: Activities of EGFR T790M inhibitor on cells by ELISA, H1975; assay type: cell-based; details: Homo sapiens, NCI-H1975
A431 cells [9] = experiment: Activities on cells by ELISA, A431 (EGF stimulated); assay type: cell-based; details: Homo sapiens, A-431
[10] = Storage of crystal form C-1 at 80° C. for 24 hours (XRPD, HPLC); assay type: physicochemical
[11] = Dynamic solubility experiment in water, SGF, FaSSIF, FeSSIF; assay type: physicochemical; details: thermodynamic from solid, room temperature
EGFR WT kinase = biological target: T1, EGFR WT kinase (Homo sapiens, UniProt P00533); experiment: Wild type EGFR kinase inhibition test (z-lyte); assay type: biochemical
T1 construct: purchased Invitrogen PV3872
T1 sequence (P00533 25-1210): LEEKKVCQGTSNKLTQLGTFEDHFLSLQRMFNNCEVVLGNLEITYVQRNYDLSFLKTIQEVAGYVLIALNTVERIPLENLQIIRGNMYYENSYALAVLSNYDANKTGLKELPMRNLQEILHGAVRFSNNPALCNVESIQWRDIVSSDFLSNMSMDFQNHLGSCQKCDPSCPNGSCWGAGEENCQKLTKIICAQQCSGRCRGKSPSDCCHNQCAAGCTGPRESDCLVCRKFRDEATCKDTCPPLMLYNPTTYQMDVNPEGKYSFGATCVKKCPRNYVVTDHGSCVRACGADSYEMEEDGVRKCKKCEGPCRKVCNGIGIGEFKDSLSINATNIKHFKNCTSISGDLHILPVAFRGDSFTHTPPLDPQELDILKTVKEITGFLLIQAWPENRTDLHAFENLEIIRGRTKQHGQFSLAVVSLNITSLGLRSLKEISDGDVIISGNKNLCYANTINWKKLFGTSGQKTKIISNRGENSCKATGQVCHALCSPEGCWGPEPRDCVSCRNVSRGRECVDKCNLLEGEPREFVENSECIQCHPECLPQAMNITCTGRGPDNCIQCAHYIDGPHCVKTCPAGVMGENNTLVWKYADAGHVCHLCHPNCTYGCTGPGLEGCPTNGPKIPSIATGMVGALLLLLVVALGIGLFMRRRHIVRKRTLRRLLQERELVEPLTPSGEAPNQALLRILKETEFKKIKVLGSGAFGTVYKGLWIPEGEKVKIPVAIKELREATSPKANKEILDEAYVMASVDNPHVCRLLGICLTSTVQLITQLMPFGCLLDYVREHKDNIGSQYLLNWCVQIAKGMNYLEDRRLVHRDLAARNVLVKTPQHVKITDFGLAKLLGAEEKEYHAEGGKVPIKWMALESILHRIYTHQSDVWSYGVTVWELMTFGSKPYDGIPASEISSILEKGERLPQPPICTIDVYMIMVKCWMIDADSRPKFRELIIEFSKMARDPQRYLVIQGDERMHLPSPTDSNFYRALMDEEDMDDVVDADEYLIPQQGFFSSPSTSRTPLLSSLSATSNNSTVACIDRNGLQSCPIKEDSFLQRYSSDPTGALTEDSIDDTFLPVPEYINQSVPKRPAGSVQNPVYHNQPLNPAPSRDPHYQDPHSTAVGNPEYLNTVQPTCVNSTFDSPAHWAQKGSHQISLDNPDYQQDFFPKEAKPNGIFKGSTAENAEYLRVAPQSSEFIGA

With `C=CC(=O)Nc1cc(Nc2ncc(F)c(-c3cnn(C)c3)n2)c(OC)cc1N1CCC(N(C)C)CC1` [crystal form II] the “weight loss in DVS” value ([1]; 25° C., humidity above 10% RH) was “essentially no weight loss; also recorded: almost no weight loss”, the water absorbed ([1]; DVS, 25° C., at 95% RH, after dewatering below 10% RH) was 6.9% and the “stability relationship crystal form II / IV” value ([2]; room temperature and 50° C.) was “more stable than hydrate crystal form IV”. For the same compound, the “stability relationship crystal form I / II” value ([2]; acetone/H2O, aw 0.2/0.4/0.6/0.8, room temperature, three days) was “more stable”.
With `C=CC(=O)Nc1cc(Nc2ncc(F)c(-c3cnn(C)c3)n2)c(OC)cc1N1CCC(N(C)C)CC1.Cl` [crystal form A] the “Maximum plasma concentration Cmax” value [3] was 93.3 ng/mL, the “Area under the curve AUC” value [3] was 1379 ng·h/mL and the “Half-life T1/2” value [3] was 7.44 h. For the same compound, the “Purity (%)” value ([4]; 5° C. (control), sealed) was 99.45%, the “Weight loss (%)” value ([4]; 5° C. (control), sealed) was 3.0% and the “Weight loss (%)” value ([4]; 25° C./60% RH, unsealed) was 4.3%. For the same compound, the crystal transition ([4]; 25° C./60% RH, unsealed) was “no”, the “Weight loss (%)” value ([4]; 40° C./75% RH, unsealed) was 3.4% and the crystal transition ([4]; 40° C./75% RH, unsealed) was “no”.
For `C=CC(=O)Nc1cc(Nc2ncc(F)c(-c3cnn(C)c3)n2)c(OC)cc1N1CCC(N(C)C)CC1.O=P(O)(O)O` [crystal form B], the “crystal form before and after the DVS test (XRPD)” value ([1]; 25° C.) was “does not change”, the “Maximum plasma concentration Cmax” value [3] was 93.2 ng/mL and the “Area under the curve AUC” value [3] was 1265 ng·h/mL. For the same compound, the “Half-life T1/2” value [3] was 7.04 h, the “Purity (%)” value ([4]; 5° C. (control), sealed) was 99.56% and the “Weight loss (%)” value ([4]; 5° C. (control), sealed) was 4.1%. The “Weight loss (%)” value ([4]; 25° C./60% RH, unsealed) was 4.6%, the crystal transition ([4]; 25° C./60% RH, unsealed) was “no” and the “Weight loss (%)” value ([4]; 40° C./75% RH, unsealed) was 4.5%. The crystal transition ([4]; 40° C./75% RH, unsealed) was “no”.
In the case of `C=CC(=O)Nc1cc(Nc2ncc(F)c(-c3cnn(C)c3)n2)c(OC)cc1N1CCC(N(C)C)CC1` [crystal form I], the “humidity at turning point of DVS isotherm (transition from anhydrous crystal form I to hydrate form II)” value ([1]; 25° C.) is reported as 20 % RH.
In the case of `C=CC(=O)Nc1cc(Nc2ncc(F)c(-c3cnn(C)c3)n2)c(OC)cc1N1CCC(N(C)C)CC1.O=C(O)CCCCC(=O)O` [crystal form E], the “crystal form before and after the DVS test (XRPD)” value ([1]; 25° C.) is reported as “did not change”, the hygroscopicity ([1]; DVS, 25° C.) is reported as “slightly hygroscopic” and the moisture absorbed ([1]; DVS) is reported as 0.5%. For the same compound, the “Maximum plasma concentration Cmax” value [3] was 117 ng/mL, the “Area under the curve AUC” value [3] was 1660 ng·h/mL and the “Half-life T1/2” value [3] was 7.46 h. The “Purity (%)” value ([4]; 5° C. (control), sealed) was 99.30%, the “Weight loss (%)” value ([4]; 5° C. (control), sealed) was 0.1% and the “Weight loss (%)” value ([4]; 25° C./60% RH, unsealed) was 0.5%. For the same compound, the crystal transition ([4]; 25° C./60% RH, unsealed) was “no”, the “Weight loss (%)” value ([4]; 40° C./75% RH, unsealed) was 0.4% and the crystal transition ([4]; 40° C./75% RH, unsealed) was “no”.
For maleate, the “Solubility S” value ([5]; 1,4-dioxane) was “S < 1.0 mg/ml”, the “Solubility S” value ([5]; 2-methyltetrahydrofuran) was “S < 0.9 mg/ml” and the “Solubility S” value ([5]; N,N-dimethylacetamide) was “S > 20.0 mg/ml”. For the same compound, the “Solubility S” value ([5]; N-methylpyrrolidone) was “S > 23.0 mg/ml”, the “Solubility S” value ([5]; acetone) was “S < 1.1 mg/ml” and the “Solubility S” value ([5]; dimethyl sulfoxide) was “S > 22.0 mg/ml”. The “Solubility S” value ([5]; ethanol) was “S < 1.1 mg/ml”, the “Solubility S” value ([5]; ethyl acetate) was “S < 0.9 mg/ml” and the “Solubility S” value ([5]; isopropanol) was “S < 0.9 mg/ml”. The “Solubility S” value ([5]; isopropyl acetate) was “S < 1.0 mg/ml”, the “Solubility S” value ([5]; methyl isobutyl ketone) was “S < 0.9 mg/ml” and the “Solubility S” value ([5]; methyl tert-butyl ether) was “S < 1.0 mg/ml”. For the same compound, the “Solubility S” value ([5]; n-hexane) was “S < 1.0 mg/ml”, the “Solubility S” value ([5]; tetrahydrofuran) was “S < 1.2 mg/ml” and the “Solubility S” value ([5]; toluene) was “S < 1.1 mg/ml”.
With `C=CC(=O)Nc1cc(Nc2ncc(F)c(-c3cnn(C)c3)n2)c(OC)cc1N1CCC(N(C)C)CC1` [crystal form IV] the “stability relationship crystal form II / IV” value ([2]; room temperature and 50° C.) was “quickly converted to hydrate crystal form II”.
`C=CC(=O)Nc1cc(Nc2nccc(-c3cn(C)c4ccccc34)n2)c(OC)cc1N(C)CCN(C)C` [comparative compound 1] gave an IC50 (NIH3T3 cells) of 3550 nM, an IC50 (A431 cells [6]; Homo sapiens, A-431, 72 h incubation) of […] and an IC50 (H1975 cells [7]; Homo sapiens, NCI-H1975, 72 h incubation) of 13 nM. The IC50 (H1975 cells [8]) was 29 nM and the IC50 (A431 cells [9]) was […].
With `C=CC(=O)Nc1cc(Nc2ncc(F)c(-c3cnn(C)c3)n2)c(OC)cc1N1CCC(N(C)C)CC1.O=C(O)C[C@H](O)C(=O)O` [crystal form D] the “Maximum plasma concentration Cmax” value [3] was 84.4 ng/mL, the “Area under the curve AUC” value [3] was 1202 ng·h/mL and the “Half-life T1/2” value [3] was 6.63 h. The “Purity (%)” value ([4]; 5° C. (control), sealed) was 99.37%, the “Weight loss (%)” value ([4]; 5° C. (control), sealed) was 1.6% and the “Weight loss (%)” value ([4]; 25° C./60% RH, unsealed) was 1.3%. For the same compound, the crystal transition ([4]; 25° C./60% RH, unsealed) was “no”, the “Weight loss (%)” value ([4]; 40° C./75% RH, unsealed) was 1.2% and the crystal transition ([4]; 40° C./75% RH, unsealed) was “no”.
With `C=CC(=O)Nc1cc(Nc2ncc(F)c(-c3cnn(C)c3)n2)c(OC)cc1N1CCC(N(C)C)CC1.O=C(O)/C=C\C(=O)O` [crystal form C-1] the “crystal form before and after the DVS test (XRPD)” value ([1]; 25° C.) was “did not change”, the hygroscopicity ([1]; DVS, 25° C.) was “slightly hygroscopic” and the moisture absorbed ([1]; DVS) was 0.3%. The “stability relationship crystal form C-1 / C-2” value ([2]; acetone, room temperature and 50° C., stirring 5 minutes) was “higher thermodynamic stability than crystal form C-2”, the “Maximum plasma concentration Cmax” value [3] was 86.3 ng/mL and the “Area under the curve AUC” value [3] was 1233 ng·h/mL. The “Half-life T1/2” value [3] was 7.92 h, the “Purity (%)” value ([4]; 5° C. (control), sealed) was 99.39% and the “Weight loss (%)” value ([4]; 5° C. (control), sealed) was 0.1%. For the same compound, the “Weight loss (%)” value ([4]; 25° C./60% RH, unsealed) was 1.2%, the crystal transition ([4]; 25° C./60% RH, unsealed) was “no” and the “Weight loss (%)” value ([4]; 40° C./75% RH, unsealed) was 1.3%. The crystal transition ([4]; 40° C./75% RH, unsealed) was “no” and the “crystal form and HPLC purity before and after the test” value [10] was “did not change”.
Compound `CN(C)C/C=C/C(=O)Nc1cc2c(Nc3ccc(F)c(Cl)c3)ncnc2cc1O[C@H]1CCOC1` [BIBW2992] has an IC50 (NIH3T3 cells) of 2750 nM.
In the case of `C=CC(=O)Nc1cc(Nc2ncc(F)c(-c3cnn(C)c3)n2)c(OC)cc1N1CCC(N(C)C)CC1` [the free base of compound of formula X, N-(2-(4-(dimethylamino)piperidin-1-yl)-5-(5-fluoro-4-(1-methyl-1H-pyrazol-4-yl)pyrimidin-2-ylamino)-4-methoxyphenyl)acrylamide], the solubility at 1 h ([11]; fasting state simulated intestinal fluid (FaSSIF), FaSSIF, after 1 hour of solid dispersion) is reported as 4200 µg/mL, the solubility at 1 h ([11]; feeding state simulated intestinal fluid (FeSSIF), FeSSIF, after 1 hour of solid dispersion) is reported as ≥ 10500 µg/mL and the solubility at 1 h ([11]; simulated gastric fluid (SGF), simulated gastric fluid, SGF, after 1 hour of solid dispersion) is reported as ≥ 8500 µg/mL. For the same compound, the solubility at 1 h ([11]; fourth solvent (head is an image; water), after 1 hour) was 10 µg/mL, the “inhibitory activities against EGFR wild-type enzyme, in words” value (EGFR WT kinase) was “weak inhibitory activities” and the “inhibitory activities against EGFR wild-type cells (A431 cells), in words” value (A431 cells [6]) was “weak inhibitory activities”. The “Purity (%)” value ([4]; 5° C. (control), sealed) was 99.23%, the “Weight loss (%)” value ([4]; 5° C. (control), sealed) was 5.1% and the “Weight loss (%)” value ([4]; 25° C./60% RH, unsealed) was 5.3%. For the same compound, the crystal transition ([4]; 25° C./60% RH, unsealed) was “no”, the “Weight loss (%)” value ([4]; 40° C./75% RH, unsealed) was 6.2% and the crystal transition ([4]; 40° C./75% RH, unsealed) was “no”. The “inhibitory activities against EGFR mutant cells (H1975 cells), in words” value (H1975 cells [7]) was “strong inhibitory activities”.
